One test has as its target human CatL (Homo sapiens (Human), UniProt P07711). The experiment in a line: Human Cathepsin L (CatL) enzymatic assay. It counts as biochemical. The protocol: Human Cathepsin L (CatL) Enzymatic Assay
60 μL of the compounds were added to 384-well dilution plate. The compound solution was diluted for 1:3 in succession in DMSO for each column for 10 pts. 0.05 μL diluted compound solution was added in each row to 384 assay plates (Corning 4514) using Echo (LABCYTE 655), each column containing 2 replicates. 5 μL working solution of human CatL enzyme (Abcam #ab81780) was added to 384-well assay plate, centrifuge 1000 rpm for 1 min. The mixture was incubated at […] for 15 min, then add 5 μL working solution of CatL substrate (Genscript #C7360HB140_5) to initiate the reaction (CatL: 0.05 nM, Substrate: 500 nM). Incubate at […] for 30 min. Reading Ex370 nm and Em460 nm fluorescence signals with BMG CLARIO Star Plusaucu. Percent inhibition for each compound was calculated and IC50 (half maximal inhibitory concentration) was fitted from non-linear regression by XLfit 5.5.0.

In a further test the test system is SARS-CoV-2 PsVs. The experiment in a line: microbe, parasite or virus in culture. The test is classed as cell-based. To be noted: for activity at 0.5 µM / activity at 5 µM: Severe acute respiratory syndrome coronavirus 2, Vero C1008, 24 h; for activity at 0.5 µM: read-out: % Infection rate at 500 nM; for activity at 5 µM: read-out: % Infection rate at 5 uM.
Setting [1] is: CatL 0.05 nM, substrate 500 nM, pH 5.5, read-out: Enzymatic inhibition IC50.
Setting [2] is: summary of Table 2, read-out: IC50 for inhibiting CatL.

pIC50: −log10 of the molar value. Where two headings read alike, the source gives them in different places.

human CatL, sequence (P07711 whole entry, looked up): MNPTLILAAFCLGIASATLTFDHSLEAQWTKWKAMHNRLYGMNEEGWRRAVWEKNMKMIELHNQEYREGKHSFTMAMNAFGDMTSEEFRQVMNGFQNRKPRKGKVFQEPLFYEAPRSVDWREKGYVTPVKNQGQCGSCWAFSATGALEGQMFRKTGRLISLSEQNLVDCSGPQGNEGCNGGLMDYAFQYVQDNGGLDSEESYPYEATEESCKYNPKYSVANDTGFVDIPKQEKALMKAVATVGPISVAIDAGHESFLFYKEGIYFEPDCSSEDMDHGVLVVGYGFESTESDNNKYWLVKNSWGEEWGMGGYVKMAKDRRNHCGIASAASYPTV

As for `N#CC1(NC(=O)[C@H](Cc2nc3cc(Cl)ccc3o2)NC(=O)c2cccc(Cl)c2)CC1` [Compound 8, (S)-3-chloro-N-(3-(5-chlorobenzo[d]oxazol-2-yl)-1-((1-cyanocyclopropyl)amino)-1-oxopropan-2-yl)benzamide], at human CatL (setting [1]), the pIC50 was 7.76. For the same compound, in the test with SARS-CoV-2 PsVs, the activity at 0.5 µM was 92% and the activity at 5 µM is 69%.

As to `N#CC1(NC(=O)[C@H](Cc2nc3ccc(Cl)cc3o2)NC(=O)c2cccc(Cl)c2)CC1` [Compound 9, (S)-3-chloro-N-(3-(6-chlorobenzo[d]oxazol-2-yl)-1-((1-cyanocyclopropyl)amino)-1-oxopropan-2-yl)benzamide], on human CatL (setting [1]), the pIC50 is 7.52. In the test on SARS-CoV-2 PsVs, the activity at 0.5 µM stood at 97% and the activity at 5 µM was determined as 73%.

`N#CC1(NC(=O)[C@H](Cc2nc3cc(C(F)(F)F)ccc3o2)NC(=O)c2cccc(Cl)c2)CC1` [Compound 10, (S)-3-chloro-N-(1-((1-cyanocyclopropyl)amino)-1-oxo-3-(5-(trifluoromethyl)benzo[d]oxazol-2-yl)propan-2-yl)benzamide]: on human CatL (setting [1]), the pIC50 was 7.29. In addition, in the test with SARS-CoV-2 PsVs, the activity at 0.5 µM came to 97% and the activity at 5 µM was 96%.

For `N#CC1(NC(=O)[C@H](Cc2nc3ccc(C(F)(F)F)cc3o2)NC(=O)c2cccc(Cl)c2)CC1` [Compound 11, (S)-3-chloro-N-(1-((1-cyanocyclopropyl)amino)-1-oxo-3-(6-(trifluoromethyl)benzo[d]oxazol-2-yl)propan-2-yl)benzamide], the pIC50 at human CatL (setting [1]) was 7.02. Further, in the test with SARS-CoV-2 PsVs, the activity at 0.5 µM came to 86% and the activity at 5 µM is 81%.

Take `Cn1nc(C(C)(C)C)cc1C(=O)N[C@@H](Cc1nc2ccccc2o1)C(=O)NC1(C#N)CC1` [Compound 13, (S)—N-(3-(benzo[d]oxazol-2-yl)-1-((1-cyanocyclopropyl)amino)-1-oxopropan-2-yl)-3-(tert-butyl)-1-methyl-1H-pyrazole-5-carboxamide]: the negative-log IC50 (pIC50) at human CatL (setting [1]) is 8.41; on human CatL (setting [2]), over 8.00. Besides, the activity at 0.5 µM in the test on SARS-CoV-2 PsVs turned out to be 55%. Also, in the test with SARS-CoV-2 PsVs, the activity at 5 µM was 10%.

With `Cc1cccc(C(=O)N[C@@H](Cc2nc3ccccc3o2)C(=O)NC2(C#N)CC2)n1` [Compound 14, (S)—N-(3-(benzo[d]oxazol-2-yl)-1-((1-cyanocyclopropyl)amino)-1-oxopropan-2-yl)-6-methylpicolinamide], the pIC50 at human CatL (setting [1]) is 6.27. For the same compound, in the test with SARS-CoV-2 PsVs, the activity at 0.5 µM is 103% and the activity at 5 µM is 97%.

Turning to `N#CCNC(=O)[C@H](Cc1nc2ccccc2o1)NC(=O)c1cc(C2CC2)nn1C1CC1` [Compound 15, (S)—N-(3-(benzo[d]oxazol-2-yl)-1-((cyanomethyl)amino)-1-oxopropan-2-yl)-1,3-dicyclopropyl-1H-pyrazole-5-carboxamide], at human CatL (setting [1]), the pIC50 was 7.71. For the same compound, the pIC50 at human CatL (setting [2]) is over 7.30. In addition, in the test on SARS-CoV-2 PsVs, the activity at 0.5 µM amounted to 79% and the activity at 5 µM turned out to be 20%.

Take `N#CC1(NC(=O)[C@H](Cc2nc3ccccc3o2)NC(=O)c2cn(C3CC3)nc2C(F)(F)F)CC1` [Compound 18, (S)—N-(3-(benzo[d]oxazol-2-yl)-1-((1-cyanocyclopropyl)amino)-1-oxopropan-2-yl)-1-cyclopropyl-3-(trifluoromethyl)-1H-pyrazole-4-carboxamide]: the pIC50 on human CatL (setting [1]) was 7.29. In the test with SARS-CoV-2 PsVs, the activity at 0.5 µM turned out to be 92% and the activity at 5 µM came out at 72.6%.

Turning to `N#CC1(NC(=O)[C@H](Cc2nc3ccccc3o2)NC(=O)c2cn(C3CC3)nc2C(F)F)CC1` [Compound 19, (S)—N-(3-(benzo[d]oxazol-2-yl)-1-((1-cyanocyclopropyl)amino)-1-oxopropan-2-yl)-1-cyclopropyl-3-(difluoromethyl)-1 H-pyrazole-4-carboxamide], at human CatL (setting [1]), the pIC50 is 7.35. For the same compound, in the test with SARS-CoV-2 PsVs, the activity at 0.5 µM was found to be 101% and the activity at 5 µM stood at 77.3%.

Turning to `CC(C)(C)c1cc(C(=O)N[C@@H](Cc2nc3cccc(Cl)c3o2)C(=O)NC2(C#N)CC2)n(C2CC2)n1` [Compound 20, (S)-3-(tert-butyl)-N-(3-(7-chlorobenzo[d]oxazol-2-yl)-1-((1-cyanocyclopropyl)amino)-1-oxopropan-2-yl)-1-cyclopropyl-1H-pyrazole-5-carboxamide], the pIC50 on human CatL (setting [1]) is 8.38. For the same compound, in the test on SARS-CoV-2 PsVs, the activity at 0.5 µM worked out at 40% and the activity at 5 µM turned out to be 6.3%.

In the case of `CC(C)(C)c1cc(C(=O)N[C@@H](Cc2nc3cc(F)cc(Cl)c3o2)C(=O)NC2(C#N)CC2)n(C2CC2)n1` [Compound 21, (S)-3-(tert-butyl)-N-(3-(7-chloro-5-fluorobenzo[d]oxazol-2-yl)-1-((1-cyanocyclopropyl)amino)-1-oxopropan-2-yl)-1-cyclopropyl-1 H-pyrazole-5-carboxamide], at human CatL (setting [1]), the pIC50 is 8.09. In the test on SARS-CoV-2 PsVs, the activity at 0.5 µM came out at 60% and the activity at 5 µM stood at 12%.

As to `CC(C)(C)c1cc(C(=O)N[C@@H](Cc2nc3cc(F)cc(Cl)c3o2)C(=O)NC2(C#N)CC2)n(C2COC2)n1` [Compound 22, (S)-3-(tert-butyl)-N-(3-(7-chloro-5-fluorobenzo[d]oxazol-2-yl)-1-((1-cyanocyclopropyl)amino)-1-oxopropan-2-yl)-1-(oxetan-3-yl)-1H-pyrazole-5-carboxamide], on human CatL (setting [1]), the pIC50 is 8.28. In the test on SARS-CoV-2 PsVs, the activity at 0.5 µM was 33% and the activity at 5 µM was found to be 13%.

As for `N#CC1(NC(=O)[C@H](Cc2nc3c(-c4cn[nH]c4)cccc3o2)NC(=O)c2cccc(Cl)c2)CC1` [Compound 23, (S)—N-(3-(4-(1H-pyrazol-4-yl)benzo[d]oxazol-2-yl)-1-((1-cyanocyclopropyl)amino)-1-oxopropan-2-yl)-3-chlorobenzamide], the pIC50 at human CatL (setting [1]) was 6.44. Further, in the test on SARS-CoV-2 PsVs, the activity at 0.5 µM was determined as 93% and the activity at 5 µM came to 98%.

Take `CN1CCN(c2ccc3nc(C[C@H](NC(=O)c4cccc(Cl)c4)C(=O)NC4(C#N)CC4)oc3c2)CC1` [Compound 24, (S)-3-chloro-N-(1-((1-cyanocyclopropyl)amino)-3-(6-(4-methylpiperazin-1-yl)benzo[d]oxazol-2-yl)-1-oxopropan-2-yl)benzamide]: the pIC50 on human CatL (setting [1]) was 8.01. In addition, the pIC50 on human CatL (setting [2]) is over 8.00. In the test with SARS-CoV-2 PsVs, the activity at 0.5 µM worked out at 34% and the activity at 5 µM came to 2%.

For the compound `CN1CCN(c2ccc3nc(C[C@H](NC(=O)c4cc(C5CC5)nn4C4CC4)C(=O)NCC#N)oc3c2)CC1` [Compound 25, (S)—N-(1-((cyanomethyl)amino)-3-(6-(4-methylpiperazin-1-yl)benzo[d]oxazol-2-yl)-1-oxopropan-2-yl)-1,3-dicyclopropyl-1 H-pyrazole-5-carboxamide], at human CatL (setting [1]), the pIC50 was 7.44. Moreover, in the test on SARS-CoV-2 PsVs, the activity at 0.5 µM stood at 54% and the activity at 5 µM came out at 15%.

Turning to `CN1CCN(c2ccc3nc(C[C@H](NC(=O)c4cc(C(C)(C)C)nn4C4CC4)C(=O)NC4(C#N)CC4)oc3c2)CC1` [Compound 26, (S)-3-(tert-butyl)-N-(1-((1-cyanocyclopropyl)amino)-3-(6-(4-methylpiperazin-1-yl)benzo[d]oxazol-2-yl)-1-oxopropan-2-yl)-1-cyclopropyl-1 H-pyrazole-5-carboxamide], at human CatL (setting [1]), the pIC50 was 8.85. In addition, at human CatL (setting [2]), the pIC50 is over 8.00. In addition, in the test on SARS-CoV-2 PsVs, the activity at 0.5 µM was 25% and the activity at 5 µM was found to be 2.2%.

On to `CN1CC=C(c2ccc3nc(C[C@H](NC(=O)c4cccc(Cl)c4)C(=O)NC4(C#N)CC4)oc3c2)CC1` [Compound 27, (S)-3-chloro-N-(1-((1-cyanocyclopropyl)amino)-3-(6-(1-methyl-1,2,3,6-tetrahydropyridin-4-yl)benzo[d]oxazol-2-yl)-1-oxopropan-2-yl)benzamide], for which the pIC50 was 8.07 at human CatL (setting [1]) and over 8.00 at human CatL (setting [2]). Besides, the activity at 0.5 µM in the test with SARS-CoV-2 PsVs was 40%. In the test on SARS-CoV-2 PsVs, the activity at 5 µM is 13%.

Turning to `N#CC1(NC(=O)[C@H](Cc2nc3ccc(C4=CCN(CC(F)F)CC4)cc3o2)NC(=O)c2cccc(Cl)c2)CC1` [Compound 28, (S)-3-chloro-N-(1-((1-cyanocyclopropyl)amino)-3-(6-(1-(2,2-difluoroethyl)-1,2,3,6-tetrahydropyridin-4-yl)benzo[d]oxazol-2-yl)-1-oxopropan-2-yl)benzamide], on human CatL (setting [1]), the pIC50 was 7.91. Besides, in the test with SARS-CoV-2 PsVs, the activity at 0.5 µM came to 70% and the activity at 5 µM was 38%.

Take `CC(C)(C)c1cc(C(=O)N[C@@H](Cc2nc3ccc(C4=CCN(CC(F)F)CC4)cc3o2)C(=O)NC2(C#N)CC2)n(C2CC2)n1` [Compound 29, (S)-3-(tert-butyl)-N-(1-((1-cyanocyclopropyl)amino)-3-(6-(1-(2,2-difluoroethyl)-1,2,3,6-tetrahydropyridin-4-yl)benzo[d]oxazol-2-yl)-1-oxopropan-2-yl)-1-cyclopropyl-1 H-pyrazole-5-carboxamide]: the pIC50 at human CatL (setting [1]) was 8.89. Besides, the pIC50 on human CatL (setting [2]) is over 8.00. Moreover, in the test with SARS-CoV-2 PsVs (500 nM), the “protection of cells from pseudovirus infection at 500 nM” value is listed as “nearly full protection”. In addition, in the test on SARS-CoV-2 PsVs, the activity at 0.5 µM turned out to be 7.3% and the activity at 5 µM came to 8.8%.

As to `CN1CCN(c2ccc3nc(C[C@H](NC(=O)c4cccc(Cl)c4)C(=O)NC4(C#N)CC4)oc3c2)C(=O)C1` [Compound 30, (S)-3-chloro-N-(1-((1-cyanocyclopropyl)amino)-3-(6-(4-methyl-2-oxopiperazin-1-yl)benzo[d]oxazol-2-yl)-1-oxopropan-2-yl)benzamide], the pIC50 at human CatL (setting [1]) was 6.91. In addition, in the test on SARS-CoV-2 PsVs, the activity at 0.5 µM was found to be 99% and the activity at 5 µM amounted to 101%.

Broadly, the pIC50 is the negative decadic logarithm of the IC50, by convention in mol/L.

The record behind these values is US11858905B1, “Cathepsin L inhibitors” (priority 2023, dated 2024).
